What all share (assay type): functional
Parameters in all cases: dose or concentration left out as unconfirmed

In one assay the test system is Colletotrichum lagenaria. As to the kind of experiment: Fungicidal activity against Colletotrichum lagenaria infected in compound pre-treated cucumber plants assessed as inhibition of fungal growth at 6.25 mg/ml measured 3 days post compound treatment.
A further assay relates to Blumeria graminis. The assay is described as follows: Fungicidal activity against Blumeria graminis grown on compound pre-treated wheat seedlings assessed as inhibition of fungal growth at 6.25 mg/ml measured 7 days post fungal inoculation.
Assay [1] concerns Pseudoperonospora cubensis. As to the kind of experiment: Fungicidal activity against Pseudoperonospora cubensis grown on compound pre-treated cucumber leaves assessed as inhibition of fungal growth at 6.25 mg/ml measured 5 days post compound treatment.
For another assay, the system named is Botrytis cinerea. The assay is described as follows: Fungicidal activity against Botryotinia fuckeliana assessed as inhibition of mycelial growth at 25 mg/ml measured after 48 hr.
A further assay deals with Phytophthora infestans. As to the kind of experiment: Fungicidal activity against Phytophthora infestans assessed as inhibition of mycelial growth at 25 mg/ml measured after 48 hr.
For a further assay, the system named is Pyricularia oryzae. As to the kind of experiment: Fungicidal activity against Magnaporthe oryzae assessed as inhibition of mycelial growth at 25 mg/ml measured after 48 hr.

Structures are written as SMILES.

Consider `CO/N=C(/C(=O)OC)c1ccccc1CO/N=C(\C)C1=Cc2c(Cl)cccc2C1`, for which the inhibition (as a rule, the drop in the measured response relative to a control, in per cent) in the assay with Colletotrichum lagenaria is 100%; in the assay with Blumeria graminis, 100%; in assay [1], 90%; in the assay with Botrytis cinerea, 100%; in the assay on Phytophthora infestans, 100%; in the assay with Pyricularia oryzae it was 100%.

As to `CO/N=C(/C(=O)OC)c1ccccc1CO/N=C(\C)C1=Cc2ccccc2C1`, the inhibition came out at 30% in the assay with Colletotrichum lagenaria; 10% with Blumeria graminis; 30% in assay [1]; 80% with Botrytis cinerea; 100% in the assay with Phytophthora infestans; 100% in the assay with Pyricularia oryzae.

Consider `CO/N=C(/C(=O)OC)c1ccccc1CO/N=C(\C)C1=Cc2cc(Cl)ccc2C1`, for which the inhibition stood at 90% in the assay on Colletotrichum lagenaria; 95% with Blumeria graminis; 95% in assay [1]; 80% in the assay on Botrytis cinerea; 100% in the assay on Phytophthora infestans; 100% with Pyricularia oryzae.

As for `CNC(=O)/C(=N/OC)c1ccccc1CO/N=C(\C)C1=Cc2ccc(F)cc2C1`, the inhibition in the assay on Colletotrichum lagenaria worked out at 100%; with Blumeria graminis, 100%; in assay [1], 100%; with Botrytis cinerea it was 80%; with Phytophthora infestans it was 100%; in the assay on Pyricularia oryzae, 100%.

For the compound `CNC(=O)/C(=N/OC)c1ccccc1CO/N=C(\C)C1=Cc2ccccc2C1`, the inhibition is 95% with Colletotrichum lagenaria; 100% in the assay with Blumeria graminis; 95% in assay [1]; 100% in the assay with Botrytis cinerea; 100% with Phytophthora infestans; 100% in the assay on Pyricularia oryzae.

Turning to `CNC(=O)/C(=N/OC)c1ccccc1CO/N=C(\C)C1=Cc2ccc(Cl)cc2C1`, the inhibition was determined as 100% with Colletotrichum lagenaria; 100% with Blumeria graminis; 85% in assay [1]; 100% in the assay with Botrytis cinerea; 100% with Phytophthora infestans; 100% in the assay on Pyricularia oryzae.

For the compound `CO/N=C(\C(=O)OC)c1ccccc1CO/N=C(\C)c1cccc(C(F)(F)F)c1`, the inhibition with Colletotrichum lagenaria stood at 60%; in the assay with Blumeria graminis it was 100%; in assay [1], 50%; in the assay with Botrytis cinerea, 100%; with Pyricularia oryzae, 100%.

Regarding `CNC(=O)/C(=N/OC)c1ccccc1CO/N=C(\C)C1=Cc2ccc(C)cc2C1`, the inhibition (with Colletotrichum lagenaria; in the assay with Blumeria graminis; in assay [1]; in the assay on Botrytis cinerea; in the assay on Phytophthora infestans; in the assay with Pyricularia oryzae) was 100% each time.

Turning to `CO/N=C(/C(=O)OC)c1ccccc1COc1ccccc1C` [KRESOXIM-METHYL], the inhibition with Colletotrichum lagenaria was 30%; with Blumeria graminis, 100%; in assay [1], 0%; in the assay with Botrytis cinerea, 100%; in the assay on Pyricularia oryzae, 100%.

Consider `CNC(=O)/C(=N/OC)c1ccccc1CO/N=C(\C)C1=Cc2cc(F)ccc2C1`, for which the inhibition in the assay on Colletotrichum lagenaria was 30%; in the assay with Blumeria graminis, 100%; in assay [1], 30%; with Botrytis cinerea, 80%; with Phytophthora infestans, 80%; with Pyricularia oryzae, 100%.

Turning to `CO/C=C(/C(=O)OC)c1ccccc1CO/N=C(\C)C1=Cc2ccc(F)cc2C1`, the inhibition came out at 60% in the assay with Colletotrichum lagenaria; 100% in the assay on Blumeria graminis; 50% in the assay on Botrytis cinerea; 100% with Phytophthora infestans; 100% in the assay on Pyricularia oryzae.

Take `CO/N=C(/C(=O)OC)c1ccccc1CO/N=C(\C)C1=Cc2cc(F)ccc2C1`: the inhibition amounted to 40% with Colletotrichum lagenaria; 100% with Blumeria graminis; 70% in assay [1]; 80% in the assay on Botrytis cinerea; 100% in the assay on Phytophthora infestans; 50% with Pyricularia oryzae.

As for `CO/N=C(/C(=O)OC)c1ccccc1CO/N=C(\C)C1=Cc2ccc(F)cc2C1`, the inhibition in the assay on Colletotrichum lagenaria worked out at 40%; in the assay on Blumeria graminis, 85%; in assay [1] it was 85%; with Botrytis cinerea, 50%; in the assay with Phytophthora infestans, 100%; in the assay with Pyricularia oryzae it was 100%.

`CNC(=O)/C(=N/OC)c1ccccc1CO/N=C(\C)C1=Cc2cc(Cl)ccc2C1`: the inhibition in the assay on Colletotrichum lagenaria was 98%; in the assay on Blumeria graminis, 100%; in assay [1] it was 90%; in the assay with Botrytis cinerea, 100%; in the assay on Phytophthora infestans, 80%; in the assay with Pyricularia oryzae it was 80%.

Consider `CO/C=C(/C(=O)OC)c1ccccc1CO/N=C(\C)C1=Cc2cc(Cl)ccc2C1`, for which the inhibition in the assay on Colletotrichum lagenaria is 30%; in the assay with Blumeria graminis it was 100%; in assay [1], 30%; with Botrytis cinerea, 80%; in the assay on Phytophthora infestans, 100%; in the assay on Pyricularia oryzae, 100%.

For the compound `CO/C=C(/C(=O)OC)c1ccccc1CO/N=C(C)/C=C/c1ccc(Cl)cc1`, the inhibition is 50% with Colletotrichum lagenaria; 62.5% in the assay on Blumeria graminis; 100% in assay [1]; 80% in the assay with Botrytis cinerea; 100% in the assay with Pyricularia oryzae.

With `CNC(=O)/C(=N/OC)c1ccccc1CO/N=C(\C)C1=Cc2c(Cl)cccc2C1`, the inhibition amounted to 80% with Colletotrichum lagenaria; 100% with Blumeria graminis; 100% in assay [1]; 80% in the assay on Botrytis cinerea; 100% with Phytophthora infestans; 100% in the assay with Pyricularia oryzae.

Consider `CO/C=C(/C(=O)OC)c1ccccc1CO/N=C(\C)C1=Cc2ccc(C)cc2C1`, for which the inhibition was 70% in the assay on Colletotrichum lagenaria; 100% with Blumeria graminis; 80% in assay [1]; 80% in the assay on Botrytis cinerea; 100% in the assay with Phytophthora infestans; 100% in the assay on Pyricularia oryzae.

For `CO/C=C(/C(=O)OC)c1ccccc1CO/N=C(\C)C1=Cc2c(Cl)cccc2C1`, the inhibition with Colletotrichum lagenaria amounted to 30%; with Blumeria graminis, 85%; in assay [1], 0%; with Botrytis cinerea, 80%; in the assay with Phytophthora infestans it was 100%; in the assay on Pyricularia oryzae, 100%.

For the compound `CO/N=C(/C(=O)OC)c1ccccc1CO/N=C(\C)C1=Cc2ccc(C)cc2C1`, the inhibition in the assay with Colletotrichum lagenaria turned out to be 90%; in the assay with Blumeria graminis, 100%; in assay [1], 100%; with Botrytis cinerea, 80%; with Phytophthora infestans it was 100%; in the assay on Pyricularia oryzae, 100%.

Consider `CO/C=C(/C(=O)OC)c1ccccc1CO/N=C(\C)C1=Cc2ccc(Cl)cc2C1`, for which the inhibition in the assay on Colletotrichum lagenaria was determined as 60%; in the assay on Blumeria graminis it was 100%; in assay [1], 40%; in the assay with Botrytis cinerea it was 80%; with Phytophthora infestans, 100%; in the assay with Pyricularia oryzae it was 50%.

In the case of `CO/N=C(/C(=O)OC)c1ccccc1CO/N=C(\C)C1=Cc2ccc(Cl)cc2C1`, the inhibition in the assay with Colletotrichum lagenaria was found to be 65%; in the assay on Blumeria graminis, 90%; in assay [1], 50%; in the assay on Botrytis cinerea, 80%; in the assay on Phytophthora infestans, 100%; in the assay on Pyricularia oryzae it was 100%.

(Values after ChEMBL document CHEMBL3046858, “Synthesis and fungicidal activities of novel indene-substituted oxime ether strobilurins” (2008).)
